From patent US12421253B2 (Mirati Therapeutics, Inc., priority 2020, dated 2025)

Key:
KRas^G12V = target: T1, KRas^G12V (Homo sapiens, UniProt P01116, G12V); assay: KRas binding assay (TR-FRET displacement of Cy5 labelled tracer)
T1 construct: […]; biotin (biotinylated); purchased Accelegan Inc

KRas^G12D = target: T2, KRas^G12D (Homo sapiens, UniProt P01116, G12D); assay: as above
T2 construct: […]; biotin (biotinylated); purchased Accelegan Inc

KRas^G12R = target: T3, KRas^G12R (Homo sapiens, UniProt P01116, G12R); assay: as above
T3 construct: […]; biotin (biotinylated); purchased Accelegan Inc
T3 sequence (P01116 1-169 isoform P01116-2 G12R): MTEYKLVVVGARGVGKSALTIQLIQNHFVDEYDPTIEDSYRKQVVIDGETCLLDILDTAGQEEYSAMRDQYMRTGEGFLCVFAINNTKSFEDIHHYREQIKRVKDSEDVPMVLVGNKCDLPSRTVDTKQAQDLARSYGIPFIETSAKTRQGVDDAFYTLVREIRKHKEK

MKN1 cells, pERK = assay: Inhibition of KRas phosphorylation of ERK (Cisbio HTRF Advanced pERK assay); format: cell-based; details: Homo sapiens, MKN-1, 3 h, read-out: Inhibition (HTRF IC50 nM) of KRas-mediated Phosphorylation of ERK, MKN1
Summary of the method: (§1)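 Compound effect on ERK phosphorylation is measured after 3 h exposure of cells, seeded the previous day in RPMI with 10% FBS, to ten 3-fold dilutions starting at 10 uM. Lysates are probed by HTRF for pERK, with trametinib at 0.2 uM defining the minimum signal.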

PSN1 cells, pERK = assay: as above; format: cell-based; details: Homo sapiens, PSN1, 3 h, read-out: Inhibition (HTRF IC50 nM) of KRas-mediated Phosphorylation of ERK, PSN1
Summary of the method: as §1

HCT116 cells, pERK = assay: as above; format: cell-based; details: Homo sapiens, HCT-116, 3 hrs, read-out: Inhibition (HTRF IC50 nM) of KRas-mediated Phosphorylation of ERK, HCT116
Summary of the method: as §1

ASPC1 cells, pERK = assay: as above; format: cell-based; details: Homo sapiens, ASPC1, 3 h, AsPC-1 cells, read-out: Inhibition (HTRF IC50 nM) of KRas-mediated Phosphorylation of ERK, AsPC-1
Summary of the method: as §1

H727 cells, pERK = assay: as above; format: cell-based; details: Homo sapiens, NCI-H727, 3 h, read-out: Inhibition (HTRF IC50 nM) of KRas-mediated Phosphorylation of ERK, H727
Summary of the method: as §1

T2 sequence (P01116 1-169 isoform P01116-2 G12D): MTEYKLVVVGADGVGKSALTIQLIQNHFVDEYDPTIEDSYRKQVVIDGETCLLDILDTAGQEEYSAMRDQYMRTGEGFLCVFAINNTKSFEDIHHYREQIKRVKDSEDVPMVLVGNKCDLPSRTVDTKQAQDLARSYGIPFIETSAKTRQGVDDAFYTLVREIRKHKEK
T1 sequence (P01116 1-169 isoform P01116-2 G12V): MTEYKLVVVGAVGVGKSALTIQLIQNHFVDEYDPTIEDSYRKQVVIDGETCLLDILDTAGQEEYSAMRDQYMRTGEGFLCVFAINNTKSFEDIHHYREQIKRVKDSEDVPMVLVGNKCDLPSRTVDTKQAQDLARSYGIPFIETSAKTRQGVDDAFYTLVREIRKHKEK

IC50 (KRas^G12V)	IC50 (KRas^G12D)	IC50 (KRas^G12R)	IC50 (MKN1 cells, pERK)	IC50 (PSN1 cells, pERK)	IC50 (HCT116 cells, pERK)	IC50 (ASPC1 cells, pERK)	IC50 (H727 cells, pERK)	SMILES
≤ 2 nM	≤ 2 nM	≤ 2 nM	29 nM	6610 nM	1120 nM	556 nM	258 nM	CCc1c(F)ccc2cc(O)cc(N3CCc4c(nc(OC[C@@]56CCCN5C[C@H](F)C6)nc4N4CCCC5(CC(O)C5)C4)C3)c12 (stereo partly drawn) [Example 60, 6-(7-(8-ethyl-7-fluoro-3-hydroxynaphthalen-1-yl)-2-(((2R,7aS)-2-fluorohexahydro-1H-pyrrolizin-7a-yl)methoxy)-5,6,7,8-tetrahydropyrido[3,4-d]pyrimidin-4-yl)-6-azaspiro[3.5]nonan-2-ol]
4 nM	4 nM	9 nM	51 nM	3650 nM	2380 nM	211 nM	1200 nM	CCc1c(F)ccc2cc(O)cc(N3CCc4c(nc(OC[C@@]56CCCN5C[C@H](F)C6)nc4N4CCCC5(CNS(=O)(=O)N5)C4)C3)c12 (stereo partly drawn) [Example 61, 7-(7-(8-ethyl-7-fluoro-3-hydroxynaphthalen-1-yl)-2-(((2R,7aS)-2-fluorohexahydro-1H-pyrrolizin-7a-yl)methoxy)-5,6,7,8-tetrahydropyrido[3,4-d]pyrimidin-4-yl)-2-thia-1,3,7-triazaspiro[4.5]decane 2,2-dioxide]
≤ 2 nM	8 nM	≤ 2 nM	33 nM	6960 nM	1170 nM	457 nM	608 nM	CCc1c(F)ccc2cc(O)cc(N3CCc4c(nc(OC[C@@]56CCCN5C[C@H](F)C6)nc4N4CC5CC(O)C(C5)C4)C3)c12 (stereo partly drawn) [Example 63, 3-(7-(8-ethyl-7-fluoro-3-hydroxynaphthalen-1-yl)-2-(((2R,7aS)-2-fluorohexahydro-1H-pyrrolizin-7a-yl)methoxy)-5,6,7,8-tetrahydropyrido[3,4-d]pyrimidin-4-yl)-3-azabicyclo[3.2.1]octan-6-ol]
≤ 2 nM	≤ 2 nM	≤ 2 nM	83 nM	2630 nM	891 nM	595 nM	778 nM	CCc1c(F)ccc2cc(O)cc(N3CCc4c(nc(OC[C@@]56CCCN5C[C@H](F)C6)nc4N4CCCC5(CNC5=O)C4)C3)c12 (stereo partly drawn) [Example 64, 6-(7-(8-ethyl-7-fluoro-3-hydroxynaphthalen-1-yl)-2-(((2R,7aS)-2-fluorohexahydro-1H-pyrrolizin-7a-yl)methoxy)-5,6,7,8-tetrahydropyrido[3,4-d]pyrimidin-4-yl)-2,6-diazaspiro[3.5]nonan-1-one]
≤ 2 nM	3 nM	≤ 2 nM	26 nM	4420 nM	1210 nM	1290 nM	739 nM	CCc1c(F)ccc2cc(O)cc(N3CCc4c(nc(OC[C@@]56CCCN5C[C@H](F)C6)nc4N4CCOCC(CO)C4)C3)c12 (stereo partly drawn) [Example 65, 5-ethyl-6-fluoro-4-(2-(((2R,7aS)-2-fluorohexahydro-1H-pyrrolizin-7a-yl)methoxy)-4-(6-(hydroxymethyl)-1,4-oxazepan-4-yl)-5,6-dihydropyrido[3,4-d]pyrimidin-7(8H)-yl)naphthalen-2-ol]
≤ 2 nM	≤ 2 nM	≤ 2 nM	40 nM	750 nM	1490 nM	705 nM	471 nM	O=C1CC2(CCCN(c3nc(OC[C@@]45CCCN4C[C@H](F)C5)nc4c3CCN(c3cc(O)cc5ccc(F)c(Cl)c35)C4)C2)N1 (stereo partly drawn) [Example 70, 6-(7-(8-chloro-7-fluoro-3-hydroxynaphthalen-1-yl)-2-(((2R,7aS)-2-fluorohexahydro-1H-pyrrolizin-7a-yl)methoxy)-5,6,7,8-tetrahydropyrido[3,4-d]pyrimidin-4-yl)-1,6-diazaspiro[3.5]nonan-2-one]
3 nM	≤ 2 nM	4 nM	78 nM	4050 nM	1450 nM	253 nM	790 nM	CC1(O)COCCN(c2nc(OC[C@@]34CCCN3C[C@H](F)C4)nc3c2CCN(c2cc(O)cc4ccc(F)c(Cl)c24)C3)C1 (stereo partly drawn) [Example 74, 4-(7-(8-chloro-7-fluoro-3-hydroxynaphthalen-1-yl)-2-(((2R,7aS)-2-fluorohexahydro-1H-pyrrolizin-7a-yl)methoxy)-5,6,7,8-tetrahydropyrido[3,4-d]pyrimidin-4-yl)-6-methyl-1,4-oxazepan-6-ol]
3 nM	10 nM	3 nM	203 nM	7580 nM	–	1300 nM	957 nM	Oc1cc(N2CCc3c(nc(OC[C@@]45CCCN4C[C@H](F)C5)nc3N3CC4CC(O)C(C4)C3)C2)c2c(Br)c(F)ccc2c1 (stereo partly drawn) [Example 215, 3-(7-(8-bromo-7-fluoro-3-hydroxynaphthalen-1-yl)-2-(((2R,7aS)-2-fluorohexahydro-1H-pyrrolizin-7a-yl)methoxy)-5,6,7,8-tetrahydropyrido[3,4-d]pyrimidin-4-yl)-3-azabicyclo[3.2.1]octan-6-ol]
≤ 2 nM	≤ 2 nM	≤ 2 nM	29 nM	4100 nM	–	668 nM	616 nM	OCC1COCCN(c2nc(OC[C@@]34CCCN3C[C@H](F)C4)nc3c2CCN(c2cc(O)cc4ccc(F)c(Br)c24)C3)C1 (stereo partly drawn) [Example 220, 5-bromo-6-fluoro-4-(2-(((2R,7aS)-2-fluorohexahydro-1H-pyrrolizin-7a-yl)methoxy)-4-(6-(hydroxymethyl)-1,4-oxazepan-4-yl)-5,6-dihydropyrido[3,4-d]pyrimidin-7(8H)-yl)naphthalen-2-ol]
3 nM	4 nM	5 nM	145 nM	≥ 10000 nM	–	1360 nM	1460 nM	Oc1cc(N2CCc3c(nc(OC[C@@]45CCCN4C[C@H](F)C5)nc3N3CCOCC(n4cccn4)C3)C2)c2c(Br)c(F)ccc2c1 (stereo partly drawn) [Example 221, 4-(4-(6-(1H-pyrazol-1-yl)-1,4-oxazepan-4-yl)-2-(((2R,7aS)-2-fluorotetrahydro-1H-pyrrolizin-7a(5H)-yl)methoxy)-5,8-dihydropyrido[3,4-d]pyrimidin-7(6H)-yl)-5-bromo-6-fluoronaphthalen-2-ol]
≤ 2 nM	≤ 2 nM	≤ 2 nM	62 nM	≥ 10000 nM	–	976 nM	651 nM	Oc1cc(N2CCc3c(nc(OC[C@@]45CCCN4C[C@H](F)C5)nc3N3CCCC4(CC(O)C4)C3)C2)c2c(Br)c(F)ccc2c1 (stereo partly drawn) [Example 224, 6-(7-(8-bromo-7-fluoro-3-hydroxynaphthalen-1-yl)-2-(((2R,7aS)-2-fluorohexahydro-1H-pyrrolizin-7a-yl)methoxy)-5,6,7,8-tetrahydropyrido[3,4-d]pyrimidin-4-yl)-6-azaspiro[3.5]nonan-2-ol]
4 nM	20 nM	6 nM	524 nM	7050 nM	–	4050 nM	1300 nM	Oc1cc(N2CCc3c(nc(OC[C@@]45CCCN4C[C@H](F)C5)nc3N3CC4CC(O)C(C4)C3)C2)c2c(Cl)c(F)ccc2c1 (stereo partly drawn) [Example 227, 3-(7-(8-chloro-7-fluoro-3-hydroxynaphthalen-1-yl)-2-(((2R,7aS)-2-fluorohexahydro-1H-pyrrolizin-7a-yl)methoxy)-5,6,7,8-tetrahydropyrido[3,4-d]pyrimidin-4-yl)-3-azabicyclo[3.2.1]octan-6-ol]
3 nM	5 nM	5 nM	112 nM	≥ 10000 nM	–	1090 nM	1750 nM	Oc1cc(N2CCc3c(nc(OC[C@@]45CCCN4C[C@H](F)C5)nc3N3CCOCC(n4cccn4)C3)C2)c2c(Cl)c(F)ccc2c1 (stereo partly drawn) [Example 230, 4-(4-(6-(1H-pyrazol-1-yl)-1,4-oxazepan-4-yl)-2-(((2R,7aS)-2-fluorohexahydro-1H-pyrrolizin-7a-yl)methoxy)-5,6-dihydropyrido[3,4-d]pyrimidin-7(8H)-yl)-5-chloro-6-fluoronaphthalen-2-ol]
15 nM	12 nM	26 nM	929 nM	≥ 10000 nM	–	2360 nM	4380 nM	O=C1NCC12CCCN(c1nc(OC[C@@]34CCCN3C[C@H](F)C4)nc3c1CCN(c1cc(O)cc4ccc(F)c(Cl)c14)C3)C2 (stereo partly drawn) [Example 231, 6-(7-(8-chloro-7-fluoro-3-hydroxynaphthalen-1-yl)-2-(((2R,7aS)-2-fluorotetrahydro-1H-pyrrolizin-7a(5H)-yl)methoxy)-5,6,7,8-tetrahydropyrido[3,4-d]pyrimidin-4-yl)-2,6-diazaspiro[3.5]nonan-1-one]
